US10624916B2, “Nutritional formulations using human milk oligosaccharides for modulating inflammation” (ABBOTT LABORATORIES, priority 2012, dated 2020)

Test system: platelet neutrophil complex (PNC) formation
Assay: in vitro simulation of PNC formation (ADP-stimulated, % CD11b+CD42a+ events)
Format: cell-based, human
Details: 125 μg/mL; for effect on PNC formation (in words): 15 minute ingredient incubation, n=2-3 individuals, FIG. 1; for % CD11b+CD42a+ in the tested condition as a percent of those events that were CD11b+CD42a+ under ADP stimulation, average: average of subjects; for % CD11b+CD42a+ in the tested condition as a percent of those events that were CD11b+CD42a+ under ADP stimulation, average / % CD11b+CD42a+ in the tested condition as a percent of those events that were CD11b+CD42a+ under ADP stimulation: 15 minutes with ingredient, then ADP (10 μM) 15 minutes; for individuals in whom PNC formation decreased: 3 donors, Table 4
Description: Data was generated using an in vitro simulation of PNC formation with a 15 minute ingredient incubation period.
Test concentration was 125 μg/mL for all ingredients tested. Cells were incubated with test ingredients or medium alone (ADP) for 15 minutes. ADP (10 μM) was added to each tube and incubated for 15 minutes. The ADP alone contained no test ingredient. Data is expressed as % CD11b+CD42a+ in the tested conditions as a percent of those events that were CD11b+CD42a+ under ADP stimulation.

| Compound | effect on PNC formation (in words) | % CD11b+CD42a+ in the tested condition as a percent of those events that were CD11b+CD42a+ under ADP stimulation, average [%] | % CD11b+CD42a+ in the tested condition as a percent of those events that were CD11b+CD42a+ under ADP stimulation (subject 1) [%] | % CD11b+CD42a+ in the tested condition as a percent of those events that were CD11b+CD42a+ under ADP stimulation (subject 2) [%] | % CD11b+CD42a+ in the tested condition as a percent of those events that were CD11b+CD42a+ under ADP stimulation (subject 3) [%] | individuals in whom PNC formation decreased |
| --- | --- | --- | --- | --- | --- | --- |
| 3-fucosyllactose [3FL] | did not decrease PNC formation | 83.1 | 80.8 | 64.3 | 104.1 | – |
| CC(=O)N[C@H]1[C@H]([C@H](O)[C@H](O)CO)O[C@@](OC[C@H]2O[C@@H](O[C@H]3[C@H](O)[C@@H](O)[C@H](O)O[C@@H]3CO)[C@H](O)[C@@H](O)[C@H]2O)(C(=O)O)C[C@@H]1O [6′SL, 6′-sialyllactose, reference compound] | do not decrease PNC formation | 94.2 | 90.1 | 59.8 | 132.8 | – |
| CC(=O)N[C@H]1[C@H]([C@H](O)[C@H](O)CO)O[C@@](O[C@H]2[C@@H](O)[C@@H](CO)O[C@@H](O[C@H]3[C@H](O)[C@@H](O)C(O)O[C@@H]3CO)[C@@H]2O)(C(=O)O)C[C@@H]1O (some centres unmarked) [3′SL, 3′-sialyllactose, reference compound] | do not decrease PNC formation | 99.2 | 91.3 | 89.3 | 117.1 | – |
| 2′-fucosyllactose [2′FL] | significantly reduces PNC formation | 66.9 | 87.8 | 62.1 | 50.7 | decreased PNC formation in all 3 individuals tested |
| CC(=O)N[C@H]1[C@H](O[C@H]2[C@@H](O)[C@@H](CO)O[C@@H](O[C@H]3[C@H](O)[C@@H](O)C(O)O[C@@H]3CO)[C@@H]2O)O[C@H](CO)[C@@H](O[C@@H]2O[C@H](CO)[C@H](O)[C@H](O)[C@H]2O)[C@@H]1O (mixture of isomers) [LNnT, lacto-N-neotetraose] | – | 75.4 | 102.3 | 82.9 | 41.1 | decreased PNC formation in 2 out of the 3 subjects tested |
